Measurements as given in publication PMC5491917, “In vitro and in vivo anticancer studies of 2'-hydroxy chalcone derivatives exhibit apoptosis in colon cancer cells by HDAC inhibition and cell cycle arrest” (EXCLI Journal, 2017).
Where two headings read alike, the source gives them in different places.

What was measured:
HCT116 cells [1] = assay: Acridine orange/Ethidium bromide (AO/EB) staining; type: cell-based, human; details: HCT116, 48 h, mean ± SEM of 100 cells
Method: AO/EB dual staining was performed in order to determine the apoptosis inducing potential of the selected test compounds in HCT116 cell line with few modifications (Kumar et al., 2016[9]). In brief, 5 × 10^5 cells were seeded in 6 wells plate containing 2 ml of medium and incubated for 24 h. After 24 h, cells were treated with the test compounds and incubated for 48 h. After 48 h of incubation, the wells were washed with phosphate buffer saline (PBS) and cells were fixed with ice cold ethanol (70 %) for 30 min. Ethanol was then removed and cells were washed again with PBS followed by the addition of 200 µl of AO/EB (20/30 µg/ml) stain in each well. The plate was later kept in the dark for 20 min. The excess stain was further washed thrice with PBS and observed for their fluorescence under a fluorescent microscope (Eclipse TS100-F, Nikon Instruments Inc., Melville, NY, USA).

[2] = system: DMH induced colorectal carcinoma; assay: DMH (1,2-dimethyl hydrazine) induced colon cancer in Wistar rats; type: in vivo; details: test compounds 100 mg/kg p.o., 5-FU 10 mg/kg i.p., 21 days; for TNF-α level in colon homogenate: ELISA, DMH control 20.2 ± 0.8, normal control 0.8 ± 0.1; for No. of ACF/5 cm^2: colon tissue, DMH control 81.6 ± 1.4; for No. of ACF/5 cm^2 / No. of adenocarcinoma: mean ± SEM, n=6; for No. of adenocarcinoma: entire colon, DMH control 15 ± 1.2
Method: Test compound: Three test compounds, namely C1, C2 & C3 were suspended in 0.25 % sodium carboxy methyl cellulose (CMC) and were administered orally (p.o) with a dosing volume of 10 ml/kg.
Standard drug: 5-Fluorouracil (5-FU) was used as standard. It was procured in the form of injection and administered intraperitoneally (i.p) with a dosing volume of 10 ml/kg.
Induction of colon cancer was achieved using DMH according to a previously described procedure with few modifications (Perše and Cerar, 2005[15]). DMH at a dose of 30 mg/kg was administered i.p once a week for 20 weeks. The incidence of aberrant crypt foci (ACFs) and adenocarcinoma were confirmed by sacrificing a few of the animals after 20 weeks confirming the induction of colon cancer in experimental animals. Finally, the animals were randomized into five experimental groups based on their body weight.
Group 1 (normal control): Animals (n=6) were administered 0.25 % CMC in water p.o.
Group 2 (DMH control): Animals (n=6) were administered DMH
Group 3 (standard drug): Animals (n=6) received 5-FU 10 mg/kg i.p. for 21 days of study period
Group 4 (C1): Animals (n=6) received C1 at 100 mg/kg p.o for 21 days
Group 5 (C2): Animals (n=6) received C2 at 100 mg/kg p.o. for 21 days.
Group 6 (C3): Animals (n=6) received C3 at 100 mg/kg p.o. for 21 days.
The distal part of the colon, which was removed from the experimental animals after the study period was cut open and placed flat on a filter paper and fixed with 10 % buffered formalin for 12 h. Further, it was stained with 0.1 % methylene blue in PBS for 5 min. Specimens were later observed under microscope for ACF formation and were calculated as the number of counts/5 cm^2 in colon tissue. The entire colon was considered to study the incidence of adenocarcinoma. The growth was critically observed and the count and size were noted from each animal.
The levels of TNF-α were estimated in the colon of experimental animals, for which 10 % homogenate of colon tissue was prepared in tissue lysis buffer. The homogenate was centrifuged and the supernatant was collected to measure TNF-α levels using commercially available ELISA kits of rat TNF-α (# KRC3011, Invitrogen).
Length of the isolated colon was measured in centimeters and weight was measured in g. The colon length/weight (L/W) ratio was then calculated. Isolated spleen, kidney and heart of the experimental animals were also weighed in g and respective index was calculated.
Histopathology was carried out according to the described procedure (Reddy et al., 2015[18]). The stained slides were then analyzed under a microscope for any anatomical changes.
All the values were expressed as mean ± SEM of 6 animals. Data were analyzed using one-way ANOVA followed by Tukey's multiple comparison tests using Prism 5.03 (Graph Pad Software Inc., La Jolla, CA, USA). Values of p < 0.05 were considered to be significant.

HCT116 cells [3] = assay: Annexin V assay (Muse Cell Analyzer); type: cell-based, human; details: HCT116, 48 h; 5-FU 20 μM, C1 25 μM, C2 70 μM, C3 70 μM
Method: Apoptosis determination by Annexin V staining was carried out using Muse Cell Analyzer with the kit provided by the manufacturer Merck Millipore. In brief, 1 × 10^6 cells were seeded in 60 mm tissue culture dish and after overnight adherence test compounds were added and incubated. After 48 h the cells were detached by trypsinization, centrifuged and resuspended. 100 µl of cell suspension was added with 100 µl of Annexin V reagent and incubated for 20 min at room temperature following which the cells were analyzed for apoptosis.

[4] = system: histone deacetylase (HDAC) enzyme; assay: Whole cell HDAC enzyme assay; type: cell-based, human; details: HCT116 cells
Method: HCT116 cells were harvested and seeded in 96 well sterile, black well plates at 2 × 10^4 cells/well and incubated overnight. Further, the cells were treated with different concentration of the test compounds for a period of 18 h. Then, 15 mM Boc-Lys(Ac)-AMC substrate (Sigma Aldrich # SCP0168) was added and incubated for 1 h. The reaction was terminated by the addition of 50 µL of stop solution (trypsin 2 mg/ml, 1 % NP40, […]) in HDAC assay buffer (25 mM Tris-HCl (pH 8.0), 137 mM NaCl, 2.7 mM KCl, 1 mM MgCl2). The reaction was then allowed to proceed for 15 min at 37 °C after which, the fluorescence was measured at 360 nm excitation and 460 nm emission using fluorescence micro plate reader (FLx800, BioTek Instruments Inc., Winooski, VT, USA) (Reddy et al., 2015[18]).

HCT116 cells [5] = assay: MTT cytotoxicity assay on HCT116; type: cell-based; details: Homo sapiens
Method: (§1) Human colorectal carcinoma (HCT116) and African green monkey kidney epithelial cells (VERO) were procured from the National Centre for Cell Science, Pune, MH, India. The cells were maintained in Dulbecco's Modified Eagle's Medium (DMEM) (Sigma-Aldrich Co. LLC, ST. Louis, Mo, USA) supplemented with 10 % Fetal Bovine Serum (FBS) (HiMedia Laboratories, Mumbai, India) and 1 × Penicillin/Streptomycin at 37 °C in CO2 incubator (NU-5501 E/G, NuAire Inc., Plymoth, MN, USA) in humidified atmosphere of 5 % CO2 and 95 % air. The cells were maintained by routine sub-culturing in 25 cm^2 tissue culture flasks.
(§2) Cytotoxic potential of the test compounds were assessed using MTT assay (Kumar et al., 2016[9]). In brief, HCT116 and Vero cells were harvested from confluent flask and seeded (5 × 10^4 cells/well) in 96 well plates. After 24 h of incubation, the cells were exposed to different concentration of the test compounds for 48 h. Further, 50 µl of MTT reagent (HiMedia Laboratories, Mumbai, India) (2 mg/ml in sterile PBS) was added into each well after 48 h and incubated for 3 more h. The formazan crystals formed were solubilized using 100 % DMSO and the optical density was measured at 540 nm using micro plate reader (ELx800, BioTek Instruments Inc., Winooski, VT, USA).

Vero cells = assay: MTT cytotoxicity assay on Vero; type: cell-based, African green monkey; details: Chlorocebus sabaeus, 48 h exposure
Method: as §1, §2

HCT116 cells [6] = assay: Cell cycle analysis (propidium iodide, flow cytometry); type: cell-based, human; details: HCT116, 48 h treatment; for Cells in G2/M phase (M3): normal control 18.2 %
Method: The ability of the test compounds to arrest any phase of the cell cycle was determined using the described procedure (Reddy et al., 2015[18]). In this method, HCT116 cells were harvested and seeded at a density of 1 × 10^6 cell in 60 mm petri plate and incubated for 24 h. After 24 h cells were treated with test compounds for 48 h. Then the cells were washed with PBS, trypsinized and centrifuged. The cell pellets were later fixed in 70 % ice cold ethanol and stored at -20 °C for 24 h. After fixing, the pellet was dislodged in PBS and stained with propidium iodide solution. The cells were then analyzed using Accuri C6 flow cytometer with the threshold levels adjusted to remove the debris (BD Biosciences, San Jose, CA, USA) and data analysis were performed using BD Accuri™ C6 software.

[7] = 18 h treatment, mean ± SEM, triplicate, read-out: IC50 whole cell HDAC enzyme inhibition
[8] = HCT-116, 48 h exposure, read-out: IC50 Value HCT116
[9] = read-out: IC50 inhibition of HDAC (unit inferred)
[10] = HCT-116, 48 h of treatment, read-out: IC50 value on HCT116 cells

SMILES | % apoptotic cells (AO/EB staining) (HCT116 cells [1]) | TNF-α level in colon homogenate [2] | No. of ACF/5 cm^2 [2] | No. of adenocarcinoma [2] | Early Apop. (Annexin V) (HCT116 cells [3]) | Total apoptotic cells (Annexin V) (HCT116 cells [3]) | IC50 [4, 7] | IC50 (HCT116 cells [5]; [8]) | IC50 (Vero cells) | IC50 [4, 9] | Cells in G2/M phase (M3) (HCT116 cells [6]) | IC50 (HCT116 cells [5]; [10]) | Cells in S phase (M2) (HCT116 cells [6]; normal control 9.5 %) | IC50 (HCT116 cells [5]; HCT-116, 48 h, 48 h exposure, read-out: IC50 Value HCT116)
O=c1[nH]cc(F)c(=O)[nH]1 [5-FU, 5-Fluorouracil, reference compound] | 45 ± 0.87% | 16.09 ± 1.9 | 42.3 ± 1.4 /5 cm^2 | 7 ± 0.5 | 15.86% | 38.08 % of total cells | – | – | – | – | – | – | – | –
O=C(CCCCCCC(=O)Nc1ccccc1)NO [SAHA, reference compound] | – | – | – | – | – | – | 3.6 ± 0.2 µM | – | – | – | – | – | – | –
O=C(O)c1ccc(C=CC(=O)c2c(O)cccc2O)cc1 [C6, 4-[3-(2,6-Dihydroxy-phenyl)-3-oxo-propenyl]-benzoic acid] | – | – | – | – | – | – | 826 ± 58.1 µM | > 500 µM | > 500 µM | – | – | – | – | –
O=C(/C=C/c1ccc(O)cc1)c1ccccc1O [C2, 3-(4-Hydroxy-phenyl)-1-(2-hydroxy-phenyl)-propenone] | 40 ± 2.5% | – | 60.0 ± 1.1 /5 cm^2 | – | 18% | 36.60 % of total cells | 394 ± 12.9 µM | 81.4 µM | 88.3 µM | < 500 µM | 19.5% | < 200 µM | – | –
O=C(O)c1ccc(C=CC(=O)c2ccccc2O)cc1 [C3, 4-[3-(2-Hydroxy-phenyl)-3-oxo-propenyl]-benzoic acid] | 38.7 ± 0.94% | – | 73.6 ± 0.8 /5 cm^2 | – | – | 31.80 % of total cells | 929 ± 56.6 µM | 117 µM | 178 µM | – | – | < 200 µM | 12% | –
CN(C)c1ccc(/C=C/C(=O)c2ccc(O)cc2O)cc1 [C5] | – | – | – | – | – | – | 160 ± 15.5 µM | – | – | < 500 µM | – | – | – | –
Cc1ccc(/C=C/C(=O)c2ccccc2O)cc1 [C1, 1-(2-Hydroxy-phenyl)-3-p-tolyl-propenone] | 42.4 ± 2.25% | 6.18 ± 2.5 | 54.0 ± 0.5 /5 cm^2 | 10 ± 0.8 | 5.85% | 37.70 % of total cells | 105 µM | – | 26.3 µM | < 500 µM | 25% | – | – | –
CN(C)c1ccc(/C=C/C(=O)c2ccccc2O)cc1 [C4, 3-(4-Dimethylamino-phenyl)-1-(2-hydroxy-phenyl)-propenone] | – | – | – | – | – | – | 470 ± 11 µM | – | > 500 µM | < 500 µM | – | – | – | > 500 µM
